Measurements from patent US9981928B2, “Aryl sulfide derivatives and aryl sulfoxide derivatives as acaricides and insecticides” (BAYER CROPSCIENCE AKTIENGESELLSCHAFT, priority 2013, dated 2018).
Read-outs that look alike come from different tables or passages of the source.

Key:
[1] = log P determination by HPLC on reversed-phase columns (C 18), analogously to OECD Guideline 117; assay type: physicochemical; conditions: for logP (HCOOH): LC-MS in the acidic range, pH 2.7, 0.1% aqueous formic acid / acetonitrile; for logP (HCOOH) / logP (neutral): HPLC reversed-phase C 18; for logP (neutral): LC-MS in the neutral range, pH 7.8, 0.001 molar aqueous ammonium hydrogencarbonate / acetonitrile; for chromatographic logP: reversed-phase C18 HPLC column
How it was run: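 Reversed-phase C18 HPLC per OECD 117 with LC-MS detection and a linear 10→95% acetonitrile gradient. Acidic log P run at pH 2.7 with 0.1% formic acid in both eluents. Neutral log P run at pH 7.8 with 0.001 M aqueous ammonium hydrogencarbonate.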

[2] = test system: greenhouse red spider mite (Tetranychus urticae); test: Tetranychus urticae spray test, OP-resistant (TETRUR), bean leaf disks; assay type: in vivo; conditions: bean leaf disks, after 6 days
Protocol: Tetranychus urticae—Spray Test, OP-Resistant (TETRUR)
Solvent: 78.0 parts by weight of acetone
• 1.5 parts by weight of dimethylformamide Emulsifier: alkylaryl polyglycol ether
To produce a suitable preparation of active compound, 1 part by weight of active compound is dissolved using the stated parts by weight of solvent and made up with water containing an emulsifier concentration of 1000 ppm until the desired concentration is attained. To produce further test concentrations, the preparation is diluted with emulsifier-containing water.
disks of bean leaves (Phaseolus vulgaris) infested with all stages of the greenhouse red spider mite (Tetranychus urticae) are sprayed with an active compound preparation of the desired concentration.
After 6 days, the efficacy in % is determined. 100% means that all the spider mites have been killed; 0% means that none of the spider mites have been killed.

[3] = acidic range, pH 2.7, 0.1% aqueous formic acid and acetonitrile, read-out: log P[a] / log P(HCOOH)
[4] = neutral range, pH 7.8, 0.001 molar aqueous ammonium hydrogencarbonate and acetonitrile, read-out: log P[b] / log P(neutral)
[5] = Tetranychus urticae, foliar, 144 h, application rate 500 g/ha, read-out: efficacy in %

Row | SMILES | logP (HCOOH) [1] | efficacy in % ([2]; application rate 500 g/ha) | logP (neutral) [1] | also measured
1 | C=CCn1c(=O)n(-c2cc([S+]([O-])CC(F)(F)F)c(C)cc2F)c(=O)n1CC=C (racemic) [Example 120] | 2.46 | 90% |  | 
2 | Cc1cc(F)c(-n2c(=O)n(-c3ccccc3)c(=O)n2CC(F)(F)F)cc1SCC(F)(F)F [Example 155] | 3.93 | 90% | 3.90 | 
3 | Cc1ccc(-n2c(=O)n(C(C)(C)C)c(=O)n2C(C)C)cc1SCC(F)(F)F [Example 135] | 4.77 | 90% | 4.70 | 
4 | CCn1c(=O)n(-c2ccc(C)c([S+]([O-])CC(F)(F)F)c2)n(C(C)C)c1=O (stereo not drawn) [Example 140] | 2.56 | 90% | 2.54 | 
5 | C=CCn1c(=O)n(CC(F)(F)F)n(-c2cc([S+]([O-])CC(F)(F)F)c(C)cc2F)c1=O (stereo not drawn) [Example 166] | 2.72 | 90% | 2.89 | 
6 | Cc1cc(F)c(-n2[nH]c(=O)n(C)c2=O)cc1SCC(F)(F)F [Example 55] | 2.09 | 90% | 0.60 | 
7 | Cn1c(=O)n(C)n(-c2ccc(Br)c(SCC(F)(F)F)c2)c1=O [Example 68] | 2.83 | 100% | 2.78 | 
8 | Cc1cc(F)c(-n2c(=O)n(C)n(C)c2=O)cc1SCC(F)(F)F [Example 116, 4-{2-Fluoro-4-methyl-5-[(2,2,2-trifluoroethyl)sulfanyl]phenyl}-1,2-dimethyl-1,2,4-triazolidine-3,5-dione] |  |  |  | chromatographic logP [1, 3]: 2.4; chromatographic logP [1, 4]: 2.39; pest or weed control at 500 g/ha [2, 5]: 100%
9 | Cc1ccc(-n2c(=O)n(C(C)(C)C)c(=O)n2C)cc1[S+]([O-])CC(F)(F)F (stereo not drawn) [Example 139] | 2.71 | 100% | 2.70 | 
10 | Cn1c(=O)n(C2CC2)c(=O)n1-c1cc([S+]([O-])CC(F)(F)F)c(Br)cc1F (stereo not drawn) [Example 72] | 2.24 | 90% | 2.18 | 
11 | CCn1c(=O)n(C2CC2)c(=O)n1-c1cc([S+]([O-])CC(F)(F)F)c(C)cc1F (stereo not drawn) [Example 171] | 2.18 | 100% | 2.15 | 
12 | Cc1cc(F)c(N2C(=O)N(C)C(=O)C2C)cc1[S+]([O-])CC(F)(F)F (stereo not drawn) [Example 213] | 1.91 | 100% |  | 
13 | Cc1cc(C)c(N2C(=O)C(=O)N(CC(F)(F)F)C2=S)cc1SCC(F)(F)F [Example 187] | 4.21 | 90% |  | 
14 | C=CCn1c(=O)n(C2CC2)c(=O)n1-c1cc([S+]([O-])CC(F)(F)F)c(C)cc1F (stereo not drawn) [Example 165] | 2.32 | 90% | 2.30 | 
15 | C#CCn1c(=O)n(-c2cc([S+]([O-])CC(F)(F)F)c(C)cc2F)c(=O)n1C (racemic) [Example 123] | 1.96 | 100% |  | 
16 | CCn1c(=O)n(C)c(=O)n1-c1ccc(C)c(SCC(F)(F)F)c1 [Example 51] | 2.82 | 90% | 2.83 | 
17 | Cc1cc(F)c(-n2c(=O)n(C(C)C)c(=O)n2C)cc1[S+]([O-])CC(F)(F)F (stereo not drawn) [Example 92] | 2.27 | 100% | 2.22 | 
18 | Cc1cc(F)c(N2C(=O)CSC2=NCC(F)(F)F)cc1SCC(F)(F)F [Example 11, 3-{2-Fluoro-4-methyl-5-[(2,2,2-trifluoroethyl)sulfanyl]phenyl}-2-[(2,2,2-trifluoroethyl)imino]-1,3-thiazolidin-4-one] |  |  |  | chromatographic logP [1, 3]: 3.6; chromatographic logP [1, 4]: 3.5; pest or weed control at 500 g/ha [2, 5]: 90%

Row | SMILES | logP (HCOOH) [1] | efficacy in % ([2]; application rate 500 g/ha) | logP (neutral) [1] | also measured
19 | CCn1c(=O)n(C(C)(C)C)c(=O)n1-c1cc([S+]([O-])CC(F)(F)F)c(C)cc1F (stereo not drawn) [Example 137] | 3.02 | 90% | 2.96 | 
20 | CCn1c(=O)n(C)n(-c2ccc(C)c(SCC(F)(F)F)c2)c1=O [Example 131] | 3.00 | 90% | 2.97 | 
21 | CCn1c(=O)n(-c2cc(SCC(F)(F)F)c(C)cc2F)c(=O)n1CC [Example 118, 1,2-Diethyl-4-{2-fluoro-4-methyl-5-[(2,2,2-trifluoroethyl)sulfanyl]phenyl}-1,2,4-triazolidine-3,5-dione] |  |  |  | chromatographic logP [1, 3]: 3.03; pest or weed control at 500 g/ha [2, 5]: 100%
22 | Cc1cc(F)c(-n2c(=O)n(C)n(C)c2=O)cc1[S+]([O-])CC(F)(F)F (stereo not drawn) [Example 117, 4-{2-Fluoro-4-methyl-5-[(2,2,2-trifluoroethyl)sulfinyl]phenyl}-1,2-dimethyl-1,2,4-triazolidine-3,5-dione] |  |  |  | chromatographic logP [1, 3]: 1.54; chromatographic logP [1, 4]: 1.5; pest or weed control at 500 g/ha [2, 5]: 90%
23 | Cc1cc(F)c(N2C(=O)C(=O)N(CC(C)C)C2=S)cc1[S+]([O-])CC(F)(F)F (stereo not drawn) [Example 194] | 3.56 | 90% | 3.53 | 
24 | Cc1cc(F)c(N2C(=O)C(=O)N(CC(F)(F)F)C2=S)cc1SCC(F)(F)F [Example 189] | 3.95 | 90% |  | 
25 | Cc1cc(F)c(-n2c(=O)n(-c3cccc(C(F)(F)F)c3)c(=O)n2C)cc1SCC(F)(F)F [Example 76] | 4.09 | 100% | 3.94 | 
26 | C=CCn1c(=O)n(C)c(=O)n1-c1ccc(C)c([S+]([O-])CC(F)(F)F)c1 (stereo not drawn) [Example 59] | 2.03 | 100% | 2.00 | 
27 | Cc1cc(F)c(N2C(=O)CN(Cc3ccccc3)C2=O)cc1SCC(F)(F)F [Example 204] | 3.49 | 100% | 3.48 | 
28 | Cc1cc(F)c(-n2c(=O)n(C3CC3)c(=O)n2CC(F)(F)F)cc1[S+]([O-])CC(F)(F)F (stereo not drawn) [Example 164] | 2.58 | 90% | 2.54 | 
29 | CCn1c(=O)n(C)c(=O)n1-c1cc([S+]([O-])CC(F)(F)F)c(C)cc1F (stereo not drawn) [Example 98] | 1.93 | 90% | 1.91 | 
30 | CCn1c(=O)n(CC(F)(F)F)n(-c2cc(SCC(F)(F)F)c(C)cc2F)c1=O [Example 145] | 3.54 | 100% | 3.49 | 
31 | C=CCn1c(=O)n(C2CC2)c(=O)n1-c1cc(SCC(F)(F)F)c(C)cc1F [Example 130] | 3.31 | 100% | 3.28 | 
32 | C=CCn1c(=O)n(-c2cc([S+]([O-])CC(F)(F)F)c(C)cc2F)c(=O)n1C (racemic) [Example 124] | 2.00 | 100% |  | 
33 | Cn1c(=O)n(C)n(-c2ccc(Br)c([S+]([O-])CC(F)(F)F)c2)c1=O (stereo not drawn) [Example 67] | 2.05 | 100% | 2.02 | 
34 | Cc1cc(F)c(-n2c(=O)n(CC3CC3)c(=O)n2C)cc1[S+]([O-])CC(F)(F)F (stereo not drawn) [Example 169] | 2.30 |  | 2.33 | efficacy in % ([2]; application rate 100 g/ha): 90%
35 | Cc1cc(C)c([S+]([O-])CC(F)(F)F)cc1N1C(=O)C(=O)N(CC(F)F)C1=O (stereo not drawn) [Example 184] | 2.44 | 100% |  | 
36 | Cc1cc(F)c(N2C(=O)OC(C)(C)C2=O)cc1[S+]([O-])CC(F)(F)F (stereo not drawn) [Example 110, 3-[2-Fluoro-4-methyl-5-(2,2,2-trifluoroethylsulfinyl)phenyl]-5,5-dimethyloxazolidine-2,4-dione] |  |  |  | chromatographic logP [1, 3]: 2.38; pest or weed control at 100 g/ha ([2]; Tetranychus urticae, foliar, 144 h, application rate 100 g/ha, read-out: efficacy in %): 100%
